Results: ChEMBL document CHEMBL1201862, “PubChem BioAssay data set” (2004)
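Where inhibition never reached the appropriate level, the endpoint shown equals the highest concentration tested. Otherwise, values were interpolated linearly from a five-concentration, 48-hour dose response in 96-well plates. At the GI50, growth is halved.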 The source made the active and inactive calls. Cut-off read from the data, not from the text of the source: active = GI50 up to about 1.1 µM and inactive = higher.

Key:
Experiment in all cases: inhibition of tumour cell growth, NCI panel, 48 h
[1] = test system: RPMI-8226
[2] = test system: MCF7
[3] = test system: HOP-62
[4] = test system: NCI-H522
[5] = test system: SF-295
[6] = test system: NCI/ADR-RES
[7] = test system: IGROV-1
[8] = test system: BT-549
[9] = test system: OVCAR-4
[10] = test system: COLO 205
[11] = test system: SK-MEL-5
[12] = test system: HCC 2998
[13] = test system: CAKI-1
[14] = test system: SW-620
[15] = test system: SNB-19
[16] = test system: NCI-H460
[17] = test system: SN12C
[18] = test system: TK-10
[19] = test system: OVCAR-3

Measured: GI50

C=C([C@@]1(O)C[C@H]2[C@H](CCC2(OC)OC)[C@@H]2c3ccccc3O[C@@H]21)[Si](C)(C)C
inactive: [1] 44.4 µM | [2] 93.1 µM | [3] > 100 µM | [4] 89.7 µM | [5] > 100 µM | [6] > 100 µM | [7] > 100 µM | [8] > 100 µM | [9] > 100 µM | [10] > 100 µM | [11] > 100 µM | [12] > 100 µM | [13] > 100 µM | [14] > 100 µM | [15] > 100 µM | [16] > 100 µM | [17] > 100 µM | [18] > 100 µM | [19] > 100 µM

O=C1CCc2cc([N+](=O)[O-])ccc2O1
inactive: [1] > 100 µM | [2] > 100 µM | [3] > 100 µM | [4] > 100 µM | [5] > 100 µM | [6] > 100 µM | [7] > 100 µM | [8] > 100 µM | [9] > 100 µM | [10] > 100 µM | [11] > 100 µM | [12] > 100 µM | [13] > 100 µM | [14] > 100 µM | [15] > 100 µM | [16] > 100 µM | [17] > 100 µM | [18] > 100 µM | [19] > 100 µM

O=Cc1c(-c2ccccc2)nc2ccccc2c1O
inactive: [1] 34.7 µM | [2] 39.3 µM | [3] 92.7 µM | [4] 50.8 µM | [5] 97.9 µM | [6] 52.1 µM | [7] 53.8 µM | [8] > 100 µM | [9] > 100 µM | [10] 26.7 µM | [11] 17.9 µM | [12] 58.5 µM | [13] 43.4 µM | [14] 50.6 µM | [15] > 100 µM | [16] 48.2 µM | [17] 73.8 µM | [18] > 100 µM | [19] 49.8 µM

COC(=O)c1cc(=O)n(-c2ccc3nn(C)nc3c2)cc1C(=O)OC
inactive: [1] > 100 µM | [2] > 100 µM | [3] > 100 µM | [4] > 100 µM | [5] > 100 µM | [6] > 100 µM | [7] > 100 µM | [8] > 100 µM | [9] > 100 µM | [10] > 100 µM | [11] > 100 µM | [12] > 100 µM | [13] > 100 µM | [14] > 100 µM | [15] > 100 µM | [16] > 100 µM | [17] > 100 µM | [18] > 100 µM | [19] > 100 µM

CCCCCCCCCCc1c2nc(c(CCCCCCCCCC)c3ccc([nH]3)c(CCCCCCCCCC)c3nc(c(CCCCCCCCCC)c4ccc1[nH]4)C=C3)C=C2
inactive: [1] > 100 µM | [2] > 100 µM | [3] > 100 µM | [4] > 100 µM | [5] > 100 µM | [6] > 100 µM | [7] > 100 µM | [8] > 100 µM | [9] > 100 µM | [10] > 100 µM | [11] > 100 µM | [12] > 100 µM | [13] > 100 µM | [14] > 100 µM | [15] > 100 µM | [16] > 100 µM | [17] > 100 µM | [18] > 100 µM | [19] > 100 µM

CC[C@]1(Cc2ccc(OC)c(OC)c2)C2CC(C(=O)OC)ON2O[C@H](OCc2ccccc2)[C@@H]1OC(C)=O (stereo not given in full)
inactive: [1] 98.6 µM | [2] > 100 µM | [3] > 100 µM | [4] > 100 µM | [5] > 100 µM | [6] > 100 µM | [7] 42.4 µM | [8] > 100 µM | [9] > 100 µM | [10] > 100 µM | [11] > 100 µM | [12] 39.2 µM | [13] > 100 µM | [14] > 100 µM | [15] > 100 µM | [16] > 100 µM | [17] > 100 µM | [18] > 100 µM | [19] > 100 µM

Cc1nc2n(c1/C=C1/C(=O)Nc3ccccc31)CCS2
inactive: [1] 47.1 µM | [2] 24.3 µM | [3] > 100 µM | [4] 34.5 µM | [5] 39.6 µM | [6] 33.8 µM | [7] 91 µM | [8] 41.3 µM | [9] 52.5 µM | [10] 20.2 µM | [11] 31.5 µM | [12] 20.8 µM | [13] 42.1 µM | [14] 47.4 µM | [15] > 100 µM | [16] 35.7 µM | [17] 56.1 µM | [18] 31.6 µM | [19] 70.1 µM

N=C(N)/N=C(\N)Nc1ccc(C(=O)O)cc1
inactive: [1] > 100 µM | [2] > 100 µM | [3] > 100 µM | [4] > 100 µM | [5] > 100 µM | [6] > 100 µM | [7] > 100 µM | [8] > 100 µM | [9] > 100 µM | [10] > 100 µM | [11] > 100 µM | [12] > 100 µM | [13] > 100 µM | [14] > 100 µM | [15] > 100 µM | [16] > 100 µM | [17] 43.1 µM | [18] > 100 µM | [19] > 100 µM

CC(C)=CCN1c2ccccc2NC(=O)CC1C (stereo not given)
inactive: [1] > 100 µM | [2] > 100 µM | [3] > 100 µM | [4] > 100 µM | [5] > 100 µM | [6] 49.8 µM | [7] > 100 µM | [8] 22.7 µM | [9] 28.4 µM | [10] > 100 µM | [11] 29.3 µM | [12] > 100 µM | [13] > 100 µM | [14] > 100 µM | [15] > 100 µM | [16] > 100 µM | [17] 33.3 µM | [18] 55.8 µM | [19] 70.6 µM

CCCc1cc(=O)oc2c(C=O)c(O)cc(O)c12
inactive: [1] 28 µM | [2] 27 µM | [3] 22.3 µM | [4] 15.1 µM | [5] 29.9 µM | [6] 27.4 µM | [7] 30.9 µM | [8] 25.1 µM | [9] 25.8 µM | [10] 17.7 µM | [11] 17.4 µM | [12] 16.7 µM | [13] 27 µM | [14] 21.8 µM | [15] 25.8 µM | [16] 24.8 µM | [17] 24.9 µM | [18] > 100 µM | [19] 18.7 µM
